Reference: the supplement of paper PMC10307832

What was measured:
Experiment in all cases: relative viability (nuclei count vs DMSO), 5 days (fraction); higher = more cells survive
[1] = compound: COC1=CC=C(C=C1)CN2C=CC3=C2C=C(C=C3)C(=O)NO + Cc1cc(Nc2cc(N3CCN(C)CC3)nc(Sc3ccc(NC(=O)C4CC4)cc3)n2)n[nH]1 [Tozasertib] (partner 0.1 µM)
Summary of the method: (§1)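 Lung cancer cell lines were pin-tool dosed in 1536-well plates on the day after seeding, with either a lone drug or a fixed anchor-drug dose plus five library-drug doses (not always all listed) in √10 steps. Nuclei were counted on 4× images after 5 days. Relative viability is the ratio of treated-well to vehicle-well nuclei counts, with each value a median of duplicate plates.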

Veliparib + Navitoclax = compound: C[C@]1(c2nc3c(C(N)=O)cccc3[nH]2)CCCN1 [Veliparib] + CC1(C)CCC(c2ccc(Cl)cc2)=C(CN2CCN(c3ccc(C(=O)NS(=O)(=O)c4ccc(N[C@H](CCN5CCOCC5)CSc5ccccc5)c(S(=O)(=O)C(F)(F)F)c4)cc3)CC2)C1 [Navitoclax] (partner 0.5 µM)
Summary of the method: as §1

Veliparib + Pemetrexed = compound: C[C@]1(c2nc3c(C(N)=O)cccc3[nH]2)CCCN1 [Veliparib] + Nc1nc2[nH]cc(CCc3ccc(C(=O)N[C@@H](CCC(=O)O)C(=O)O)cc3)c2c(=O)[nH]1 [Pemetrexed] (partner 0.2 µM)
Summary of the method: as §1

Veliparib + Crizotinib = compound: C[C@]1(c2nc3c(C(N)=O)cccc3[nH]2)CCCN1 [Veliparib] + C[C@@H](Oc1cc(-c2cnn(C3CCNCC3)c2)cnc1N)c1c(Cl)ccc(F)c1Cl [Crizotinib] (partner 1 µM)
Summary of the method: as §1

## NCI-H1793
[1]; first compound 0.253 µM
  relative viability: 0.337
[1]; first compound 0.8 µM
  relative viability: 0.297
[1]; first compound 2.53 µM
  relative viability: 0.398
[1]; first compound 8 µM
  relative viability: 0.3
Veliparib + Navitoclax; first compound 0.02 µM
  relative viability: 0.435
Veliparib + Navitoclax; first compound 0.06325 µM
  relative viability: 0.602
Veliparib + Navitoclax; first compound 0.2 µM
  relative viability: 0.424
Veliparib + Navitoclax; first compound 0.6325 µM
  relative viability: 0.376
Veliparib + Navitoclax; first compound 2 µM
  relative viability: 0.396
Veliparib + Pemetrexed; first compound 0.02 µM
  relative viability: 0.755
Veliparib + Pemetrexed; first compound 0.06325 µM
  relative viability: 0.763
Veliparib + Pemetrexed; first compound 0.2 µM
  relative viability: 0.935
Veliparib + Pemetrexed; first compound 0.6325 µM
  relative viability: 1.07
Veliparib + Pemetrexed; first compound 2 µM
  relative viability: 0.875

## NCI-H1651
[1]; first compound 0.08 µM
  relative viability: 0.574
[1]; first compound 0.253 µM
  relative viability: 0.717
[1]; first compound 0.8 µM
  relative viability: 0.799
[1]; first compound 2.53 µM
  relative viability: 0.713
[1]; first compound 8 µM
  relative viability: 0.645
Veliparib + Navitoclax; first compound 0.02 µM
  relative viability: 1.04
Veliparib + Navitoclax; first compound 0.06325 µM
  relative viability: 1.05
Veliparib + Navitoclax; first compound 0.2 µM
  relative viability: 1.1
Veliparib + Navitoclax; first compound 0.6325 µM
  relative viability: 1.01
Veliparib + Navitoclax; first compound 2 µM
  relative viability: 0.916
Veliparib + Crizotinib; first compound 0.02 µM
  relative viability: 0.926
Veliparib + Crizotinib; first compound 0.06325 µM
  relative viability: 0.853
Veliparib + Crizotinib; first compound 0.2 µM
  relative viability: 0.805
Veliparib + Crizotinib; first compound 0.6325 µM
  relative viability: 0.799
Veliparib + Crizotinib; first compound 2 µM
  relative viability: 0.83
Veliparib + Pemetrexed; first compound 0.02 µM
  relative viability: 0.55
Veliparib + Pemetrexed; first compound 0.06325 µM
  relative viability: 0.65
Veliparib + Pemetrexed; first compound 0.2 µM
  relative viability: 0.578
Veliparib + Pemetrexed; first compound 0.6325 µM
  relative viability: 0.537
Veliparib + Pemetrexed; first compound 2 µM
  relative viability: 0.563

## NCI-H1755
[1]; first compound 0.08 µM
  relative viability: 0.512
[1]; first compound 0.253 µM
  relative viability: 0.688
[1]; first compound 0.8 µM
  relative viability: 0.619
[1]; first compound 2.53 µM
  relative viability: 0.584
[1]; first compound 8 µM
  relative viability: 0.524
Veliparib + Navitoclax; first compound 0.02 µM
  relative viability: 1.02
Veliparib + Navitoclax; first compound 0.06325 µM
  relative viability: 0.946
Veliparib + Navitoclax; first compound 0.2 µM
  relative viability: 0.939
Veliparib + Navitoclax; first compound 0.6325 µM
  relative viability: 0.925
Veliparib + Navitoclax; first compound 2 µM
  relative viability: 0.967
Veliparib + Crizotinib; first compound 0.02 µM
  relative viability: 0.84
Veliparib + Crizotinib; first compound 0.06325 µM
  relative viability: 0.853
Veliparib + Crizotinib; first compound 0.2 µM
  relative viability: 0.794
Veliparib + Crizotinib; first compound 0.6325 µM
  relative viability: 0.832
Veliparib + Crizotinib; first compound 2 µM
  relative viability: 0.805
Veliparib + Pemetrexed; first compound 0.02 µM
  relative viability: 0.405
Veliparib + Pemetrexed; first compound 0.06325 µM
  relative viability: 0.43
Veliparib + Pemetrexed; first compound 0.2 µM
  relative viability: 0.397
Veliparib + Pemetrexed; first compound 0.6325 µM
  relative viability: 0.392
Veliparib + Pemetrexed; first compound 2 µM
  relative viability: 0.444

## LCLC-103H
[1]; first compound 0.08 µM
  relative viability: 0.445
[1]; first compound 0.253 µM
  relative viability: 0.523
[1]; first compound 0.8 µM
  relative viability: 0.489
[1]; first compound 2.53 µM
  relative viability: 0.534
[1]; first compound 8 µM
  relative viability: 0.433
Veliparib + Crizotinib; first compound 0.02 µM
  relative viability: 1.1
Veliparib + Crizotinib; first compound 0.06325 µM
  relative viability: 0.982
Veliparib + Crizotinib; first compound 0.2 µM
  relative viability: 1.02
Veliparib + Crizotinib; first compound 0.6325 µM
  relative viability: 0.875
Veliparib + Crizotinib; first compound 2 µM
  relative viability: 1.09
Veliparib + Pemetrexed; first compound 0.02 µM
  relative viability: 0.447
Veliparib + Pemetrexed; first compound 0.06325 µM
  relative viability: 0.49
Veliparib + Pemetrexed; first compound 0.2 µM
  relative viability: 0.454
Veliparib + Pemetrexed; first compound 0.6325 µM
  relative viability: 0.422
Veliparib + Pemetrexed; first compound 2 µM
  relative viability: 0.478

## NCI-H1915
[1]; first compound 0.08 µM
  relative viability: 0.259
[1]; first compound 0.253 µM
  relative viability: 0.431
[1]; first compound 0.8 µM
  relative viability: 0.422
[1]; first compound 2.53 µM
  relative viability: 0.355
[1]; first compound 8 µM
  relative viability: 0.401
Veliparib + Navitoclax; first compound 0.02 µM
  relative viability: 0.766
Veliparib + Navitoclax; first compound 0.06325 µM
  relative viability: 0.759
Veliparib + Navitoclax; first compound 0.2 µM
  relative viability: 0.706
Veliparib + Navitoclax; first compound 0.6325 µM
  relative viability: 0.703
Veliparib + Navitoclax; first compound 2 µM
  relative viability: 0.67
Veliparib + Crizotinib; first compound 0.02 µM
  relative viability: 0.866
Veliparib + Crizotinib; first compound 0.06325 µM
  relative viability: 0.869
Veliparib + Crizotinib; first compound 0.2 µM
  relative viability: 0.803
Veliparib + Crizotinib; first compound 0.6325 µM
  relative viability: 0.754
Veliparib + Crizotinib; first compound 2 µM
  relative viability: 0.771
Veliparib + Pemetrexed; first compound 0.02 µM
  relative viability: 0.532
Veliparib + Pemetrexed; first compound 0.06325 µM
  relative viability: 0.463
Veliparib + Pemetrexed; first compound 0.2 µM
  relative viability: 0.537
Veliparib + Pemetrexed; first compound 0.6325 µM
  relative viability: 0.491
Veliparib + Pemetrexed; first compound 2 µM
  relative viability: 0.487

## HOP-62
[1]; first compound 0.08 µM
  relative viability: 0.304
[1]; first compound 0.253 µM
  relative viability: 0.353
[1]; first compound 0.8 µM
  relative viability: 0.392
[1]; first compound 2.53 µM
  relative viability: 0.33
[1]; first compound 8 µM
  relative viability: 0.349
Veliparib + Navitoclax; first compound 0.02 µM
  relative viability: 1.05
Veliparib + Navitoclax; first compound 0.06325 µM
  relative viability: 1
Veliparib + Navitoclax; first compound 0.2 µM
  relative viability: 1.06
Veliparib + Navitoclax; first compound 0.6325 µM
  relative viability: 0.937
Veliparib + Navitoclax; first compound 2 µM
  relative viability: 1.03
Veliparib + Crizotinib; first compound 0.02 µM
  relative viability: 0.981
Veliparib + Crizotinib; first compound 0.06325 µM
  relative viability: 0.795
Veliparib + Crizotinib; first compound 0.2 µM
  relative viability: 0.836
Veliparib + Crizotinib; first compound 0.6325 µM
  relative viability: 0.866
Veliparib + Crizotinib; first compound 2 µM
  relative viability: 0.933
Veliparib + Pemetrexed; first compound 0.02 µM
  relative viability: 0.311
Veliparib + Pemetrexed; first compound 0.06325 µM
  relative viability: 0.376
Veliparib + Pemetrexed; first compound 0.2 µM
  relative viability: 0.365
Veliparib + Pemetrexed; first compound 0.6325 µM
  relative viability: 0.329
Veliparib + Pemetrexed; first compound 2 µM
  relative viability: 0.373

## HARA
[1]; first compound 0.253 µM
  relative viability: 0.109
[1]; first compound 0.8 µM
  relative viability: 0.114
[1]; first compound 2.53 µM
  relative viability: 0.128
[1]; first compound 8 µM
  relative viability: 0.0964
Veliparib + Navitoclax; first compound 0.02 µM
  relative viability: 1.17
Veliparib + Navitoclax; first compound 0.06325 µM
  relative viability: 1.09
Veliparib + Navitoclax; first compound 0.2 µM
  relative viability: 1.1
Veliparib + Navitoclax; first compound 0.6325 µM
  relative viability: 1.08
Veliparib + Navitoclax; first compound 2 µM
  relative viability: 1.15
Veliparib + Crizotinib; first compound 0.02 µM
  relative viability: 1.03
Veliparib + Crizotinib; first compound 0.06325 µM
  relative viability: 0.996
Veliparib + Crizotinib; first compound 0.2 µM
  relative viability: 0.954
Veliparib + Crizotinib; first compound 0.6325 µM
  relative viability: 0.848
Veliparib + Crizotinib; first compound 2 µM
  relative viability: 1.06
Veliparib + Pemetrexed; first compound 0.02 µM
  relative viability: 0.254
Veliparib + Pemetrexed; first compound 0.2 µM
  relative viability: 0.219
Veliparib + Pemetrexed; first compound 0.6325 µM
  relative viability: 0.265
Veliparib + Pemetrexed; first compound 2 µM
  relative viability: 0.261
